Data reported in ChEMBL document CHEMBL4765282, “Design, synthesis and biological evaluation of 1H-pyrazolo [3,4-d]pyrimidine derivatives as PAK1 inhibitors that trigger apoptosis, ER stress and anti-migration effect in MDA-MB-231 cells” (Eur J Med Chem, 2020).
Activity calls are given as the source filed them. The rule behind the calls is not given here.

Each compound was assayed against Serine/threonine-protein kinase PAK 1 (Homo sapiens, UniProt Q13153) (assay: Inhibition of PAK1 (unknown origin) […] measured after 40 mins by ADP-glo kinase assay).
Chain of Serine/threonine-protein kinase PAK 1 (Q13153 whole entry): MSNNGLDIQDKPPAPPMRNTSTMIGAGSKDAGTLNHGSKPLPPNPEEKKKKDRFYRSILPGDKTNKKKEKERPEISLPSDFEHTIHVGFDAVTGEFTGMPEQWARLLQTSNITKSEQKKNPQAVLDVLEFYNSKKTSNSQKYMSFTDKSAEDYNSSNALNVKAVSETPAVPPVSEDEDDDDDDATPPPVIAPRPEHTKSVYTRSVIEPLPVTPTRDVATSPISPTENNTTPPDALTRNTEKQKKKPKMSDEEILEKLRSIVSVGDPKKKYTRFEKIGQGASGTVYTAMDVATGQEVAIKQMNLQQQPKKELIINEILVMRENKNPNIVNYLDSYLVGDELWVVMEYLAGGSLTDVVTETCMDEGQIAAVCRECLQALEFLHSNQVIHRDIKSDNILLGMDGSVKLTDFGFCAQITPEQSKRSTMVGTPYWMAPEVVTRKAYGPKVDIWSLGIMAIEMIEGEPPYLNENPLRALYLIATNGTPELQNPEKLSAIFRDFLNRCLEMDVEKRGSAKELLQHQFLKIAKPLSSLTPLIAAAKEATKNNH

| Structure (SMILES) | IC50 [µM] |
| --- | --- |
| Cc1cc(C)c(C(=O)NC2CCN(c3ncnc4[nH]ncc34)CC2)c(C)c1 | 6.77 |
| O=C(Nc1ccc(Cl)cc1Cl)N1CCC(Nc2ncnc3[nH]ncc23)CC1 | 5.46 |
| O=C(NC1CCN(c2ncnc3[nH]ncc23)CC1)c1ccc(C(F)(F)F)cc1 | 5.74 |
| O=C(Nc1ccc(Br)cc1)N1CCC(Nc2ncnc3[nH]ncc23)CC1 | 17.9 |
| O=C(Nc1ccccc1Cl)N1CCC(Nc2ncnc3[nH]ncc23)CC1 | 5.24 |
| Cc1ccccc1C(=O)N1CCC(Nc2ncnc3[nH]ncc23)CC1 | 33.2 |
| O=C(c1ccc(Cl)cc1)N1CCC(Nc2ncnc3[nH]ncc23)CC1 | 9.44 |
| COc1ccc(NC(=S)N2CCC(Nc3ncnc4[nH]ncc34)CC2)cc1 | 15.1 |
| O=C(NC1CCN(c2ncnc3[nH]ncc23)CC1)c1cccc(C(F)(F)F)c1 | 2.51 |
| O=C(Nc1cccc(Cl)c1)N1CCC(Nc2ncnc3[nH]ncc23)CC1 | 7.18 |
| COc1ccc(NC(=O)N2CCC(Nc3ncnc4[nH]ncc34)CC2)cc1 | 13.8 |
| Cc1cccc(C)c1NC(=O)N1CCC(Nc2ncnc3[nH]ncc23)CC1 | 6.27 |
| O=C(c1ccccc1Cl)N1CCC(Nc2ncnc3[nH]ncc23)CC1 | 6.84 |
| Cc1cc(C)c(C(=O)N2CCC(Nc3ncnc4[nH]ncc34)CC2)c(C)c1 | 31.1 |
| S=C(Nc1cccc(Cl)c1)N1CCC(Nc2ncnc3[nH]ncc23)CC1 | 7.89 |
| FC(F)(F)c1cc(NC(=S)N2CCC(Nc3ncnc4[nH]ncc34)CC2)cc(C(F)(F)F)c1 | 8.71 |
| Cc1cccc(C)c1NC(=S)N1CCC(Nc2ncnc3[nH]ncc23)CC1 | 7.36 |
| O=C(c1cccc(Cl)c1Cl)N1CCC(Nc2ncnc3[nH]ncc23)CC1 | 6.77 |
| O=C(c1cccc(C(F)(F)F)c1)N1CCC(Nc2ncnc3[nH]ncc23)CC1 | > 50 |
| O=C(Nc1ccc(Cl)c(Cl)c1)N1CCC(Nc2ncnc3[nH]ncc23)CC1 | 10.8 |
| O=C(Nc1cc(C(F)(F)F)cc(C(F)(F)F)c1)N1CCC(Nc2ncnc3[nH]ncc23)CC1 | 9.32 |
| Cc1ccc(NC(=S)N2CCC(Nc3ncnc4[nH]ncc34)CC2)cc1 | 19.6 |
| Cc1ccc(C(=O)N2CCC(Nc3ncnc4[nH]ncc34)CC2)cc1 | 39.5 |
| S=C(Nc1ccccc1Cl)N1CCC(Nc2ncnc3[nH]ncc23)CC1 | 6.67 |
| Cc1ccc(NC(=O)N2CCC(Nc3ncnc4[nH]ncc34)CC2)cc1 | 17.4 |
| O=C(c1ccc(F)cc1)N1CCC(Nc2ncnc3[nH]ncc23)CC1 | 7.82 |
| O=C(c1ccc(C(F)(F)F)cc1)N1CCC(Nc2ncnc3[nH]ncc23)CC1 | > 50 |
| O=C(Nc1ccc(C(F)(F)F)cc1)N1CCC(Nc2ncnc3[nH]ncc23)CC1 | 15.8 |
| O=C(Nc1ccc(F)cc1F)N1CCC(Nc2ncnc3[nH]ncc23)CC1 | 5.17 |
| O=C(c1ccc(Br)cc1)N1CCC(Nc2ncnc3[nH]ncc23)CC1 | 29.2 |

The remaining lines, values ahead:

| IC50 [µM] | Structure (SMILES) |
| --- | --- |
| 4.54 | O=C(NC1CCN(c2ncnc3[nH]ncc23)CC1)c1ccc(F)cc1 |
| 2.16 | Cc1cccc(C)c1NC(=O)NC1CCN(c2ncnc3[nH]ncc23)CC1 |
| 5.24 | O=C(NC1CCN(c2ncnc3[nH]ncc23)CC1)c1ccccc1Cl |
| 16.4 | O=C(NC1CCN(c2ncnc3[nH]ncc23)CC1)c1ccc(Br)cc1 |
| 2.29 | O=C(Nc1ccc(Cl)c(Cl)c1)NC1CCN(c2ncnc3[nH]ncc23)CC1 |
| 7.15 | O=C(Nc1ccc(C(F)(F)F)cc1)NC1CCN(c2ncnc3[nH]ncc23)CC1 |
| 4.03 | O=C(Nc1ccc(Br)cc1)NC1CCN(c2ncnc3[nH]ncc23)CC1 |
| 4.71 | Cc1ccc(NC(=O)NC2CCN(c3ncnc4[nH]ncc34)CC2)cc1 |
| 5.61 | Cc1ccc(C(=O)NC2CCN(c3ncnc4[nH]ncc34)CC2)cc1 |
| 6.26 | Cc1ccccc1C(=O)NC1CCN(c2ncnc3[nH]ncc23)CC1 |
| 1.24 | O=C(Nc1cccc(Cl)c1)NC1CCN(c2ncnc3[nH]ncc23)CC1 |
| 4.17 | O=C(NC1CCN(c2ncnc3[nH]ncc23)CC1)c1cccc(Cl)c1Cl |
| > 50 | S=C(Nc1cccc2ccccc12)N1CCC(Nc2ncnc3[nH]ncc23)CC1 |
| 0.56 | O=C(Nc1ccccc1Cl)NC1CCN(c2ncnc3[nH]ncc23)CC1 |
| 6.37 | COc1ccc(NC(=O)NC2CCN(c3ncnc4[nH]ncc34)CC2)cc1 |
| 8.82 | COc1ccc(C(=O)NC2CCN(c3ncnc4[nH]ncc34)CC2)cc1 |
| 11.1 | O=C(Nc1cccc2ccccc12)NC1CCN(c2ncnc3[nH]ncc23)CC1 |
| > 50 | O=C(Nc1cccc2ccccc12)N1CCC(Nc2ncnc3[nH]ncc23)CC1 |
| 1.14 | O=C(Nc1ccc(F)cc1F)NC1CCN(c2ncnc3[nH]ncc23)CC1 |

What follows are compounds tested on MDA-MB-231 (assay: Down regulation of PAK1 expression in human MDA-MB-231 cells at 5 uM measured after 24 hrs by immunofluorescence analysis).
Type: functional, cell-based

| Structure (SMILES) | Activity |
| --- | --- |
| CCn1c(=O)c(-c2ccc(-c3cncs3)cc2Cl)cc2cnc(Nc3ccc(N4CCN(C)CC4)cc3)nc21 | Active |
